The source of these data is ChEMBL document CHEMBL1201862, “PubChem BioAssay data set” (2004).

Activity calls are given as the source filed them. Rule as the data show it, for most assays here: actives have a measured EC50 and inactives only a lower limit.

A short description of assay [1]: alpha-synuclein stem-loop luciferase translation blockers – H4 neuroglioma cells, luminescence, confirmation (AID 1988). The class given is functional, cell-based.
Assay [2] is described as follows: Luminescence Cell-Based Dose Response HTS to Identify Inhibitors of 5'UTR Stem-Loop Driven Prion Protein mRNA Translation in H4 Neuroglioblastoma Cells. [Related pubchem assays: 1827 (Project Summary), 1813 (Primary HTS)]. In kind it is functional.
A short description of assay [3]: luciferase reporter signal suppression in cells – H4 neuroglioma cells, luminescence, dose response (AID 1990). In kind it is functional, cell-based. (A reporter such as luciferase makes a cellular process visible.)
Assay [4] concerns the target Luciferin 4-monooxygenase (Photinus pyralis, UniProt P08659). The experiment in a line: inhibition of purified Photinus pyralis luciferase – biochemical, luminescence, dose response (AID 1891).
Assay [5] addresses T1, RNA-binding protein pos-1 (Caenorhabditis elegans, UniProt G5EF15).
T1 sequence (G5EF15 whole entry): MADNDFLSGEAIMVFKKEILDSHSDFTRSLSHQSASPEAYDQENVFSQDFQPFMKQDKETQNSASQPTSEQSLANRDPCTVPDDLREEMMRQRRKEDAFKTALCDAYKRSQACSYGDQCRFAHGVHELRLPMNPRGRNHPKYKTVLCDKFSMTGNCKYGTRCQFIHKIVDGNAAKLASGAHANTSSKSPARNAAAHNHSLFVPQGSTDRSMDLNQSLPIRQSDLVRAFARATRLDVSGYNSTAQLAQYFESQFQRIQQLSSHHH
The experiment in a line: disruptors of C. elegans POS-1 RNA interaction – biochemical, fluorescence polarization, dose response (AID 1964).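 Also: purified POS-1 fused to maltose binding protein made in E. coli; potency of compounds blocking POS-1 binding to fluorescent RNA.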 A general note: In fluorescence polarisation assays a small probe gives low polarisation when free and higher when bound to something large.

Assay [6] is described as follows: Luminescence Cell-Based Dose Confirmation HTS to Identify Inhibitors of Platelet Dense Granule Release. [Related pubchem assays: 1663 (Primary HTS), 1678 (Summary of Project)]. The class given is functional.
Assay [7] concerns the target T2, Protein skinhead-1 (Caenorhabditis elegans, UniProt P34707).
T2 sequence (P34707 whole entry): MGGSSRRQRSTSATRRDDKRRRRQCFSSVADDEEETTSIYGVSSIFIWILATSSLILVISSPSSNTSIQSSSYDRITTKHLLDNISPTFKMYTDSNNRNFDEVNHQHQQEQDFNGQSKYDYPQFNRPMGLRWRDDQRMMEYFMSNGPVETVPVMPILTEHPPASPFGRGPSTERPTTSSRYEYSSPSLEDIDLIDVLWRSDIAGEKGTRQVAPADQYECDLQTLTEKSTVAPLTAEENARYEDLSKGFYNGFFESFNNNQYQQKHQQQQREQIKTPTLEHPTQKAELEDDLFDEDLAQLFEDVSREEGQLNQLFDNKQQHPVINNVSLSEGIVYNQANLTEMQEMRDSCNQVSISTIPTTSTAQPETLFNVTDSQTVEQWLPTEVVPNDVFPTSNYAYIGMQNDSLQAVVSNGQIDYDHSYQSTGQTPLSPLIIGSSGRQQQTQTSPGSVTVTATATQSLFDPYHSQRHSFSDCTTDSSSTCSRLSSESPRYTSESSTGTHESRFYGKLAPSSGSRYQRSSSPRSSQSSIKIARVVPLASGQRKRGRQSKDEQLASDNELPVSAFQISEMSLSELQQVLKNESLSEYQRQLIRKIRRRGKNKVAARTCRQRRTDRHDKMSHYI
The class given is functional.

In assay [8] the test system is H4. The experiment in a line: Luminescence Cell-Based Dose Response HTS to Identify Activators of 5'UTR Stem-Loop Driven Prion Protein mRNA Translation in H4 Neuroglioblastoma Cells. [Related pubchem assays: 1829 (Project Summary), 1814 (Primary HTS)]. In kind it is functional. The settings on record: Homo sapiens.
Assay [9] in a line: Luminescence Cell-Based Dose Confirmation HTS to Identify Activators of 5'UTR Stem-Loop Driven Alpha-Synuclein mRNA Translation in H4 Neuroglioblastoma Cells. [Related pubchem assays: 1829 (Project Summary), 1814 (Primary HTS)]. The class given is functional.
The nature of assay [10]: Luminescence Cell-Based Dose Response HTS to Identify Activators of Luciferase Translation or Activity in H4 […] Cells. [Related pubchem assays: 1829 (Project Summary), 1814 (Primary HTS)]. In kind it is functional.
The target of assay [11] is Cytochrome P450 2C9 (Homo sapiens, UniProt P11712).
Chain of Cytochrome P450 2C9 (P11712 whole entry): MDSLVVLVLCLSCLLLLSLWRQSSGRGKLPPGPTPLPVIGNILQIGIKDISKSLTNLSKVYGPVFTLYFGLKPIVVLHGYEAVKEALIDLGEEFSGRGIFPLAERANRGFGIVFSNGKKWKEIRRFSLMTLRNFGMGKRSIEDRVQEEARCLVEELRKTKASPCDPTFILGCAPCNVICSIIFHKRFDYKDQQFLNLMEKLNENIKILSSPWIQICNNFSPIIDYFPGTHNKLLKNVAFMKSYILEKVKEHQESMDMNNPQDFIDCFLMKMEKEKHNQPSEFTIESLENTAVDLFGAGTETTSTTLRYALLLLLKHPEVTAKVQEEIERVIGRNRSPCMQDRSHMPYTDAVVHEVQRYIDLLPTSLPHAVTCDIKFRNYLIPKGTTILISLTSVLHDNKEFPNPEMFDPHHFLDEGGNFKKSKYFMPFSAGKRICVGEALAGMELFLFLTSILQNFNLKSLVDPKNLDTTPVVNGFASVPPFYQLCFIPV
Assay [12] can be described thus: viability of uninfected HEp-2 cells – cell-based, HTS, cytotoxicity control for RSV inhibitor project, dose response (AID 2410). The class given is functional. The settings on record: human respiratory syncytial virus.
Assay [13] in a line: Luminescence Cell-Based Dose Retest to Confirm Inhibitors of Cancer Stem Cells. [Related pubchem assays (depositor defined):AID2717, AID2721]. In kind it is functional. The settings on record: Homo sapiens.

Chain of Luciferin 4-monooxygenase (P08659 whole entry): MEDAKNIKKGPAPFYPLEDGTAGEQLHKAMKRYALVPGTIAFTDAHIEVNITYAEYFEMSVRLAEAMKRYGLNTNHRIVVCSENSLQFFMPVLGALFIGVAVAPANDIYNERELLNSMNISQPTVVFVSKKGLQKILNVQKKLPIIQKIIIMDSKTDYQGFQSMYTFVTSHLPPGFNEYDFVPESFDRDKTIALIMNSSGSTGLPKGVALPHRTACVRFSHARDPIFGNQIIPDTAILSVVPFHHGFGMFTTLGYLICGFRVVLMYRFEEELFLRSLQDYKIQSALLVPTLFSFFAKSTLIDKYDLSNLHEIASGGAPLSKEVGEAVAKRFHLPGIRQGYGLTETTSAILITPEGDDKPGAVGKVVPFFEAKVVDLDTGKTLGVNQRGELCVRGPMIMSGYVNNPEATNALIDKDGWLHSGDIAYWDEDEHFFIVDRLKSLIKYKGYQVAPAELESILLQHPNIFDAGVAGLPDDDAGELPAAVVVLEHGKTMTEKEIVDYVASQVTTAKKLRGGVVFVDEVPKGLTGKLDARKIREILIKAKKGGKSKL

For orientation: EC50 means the concentration giving half of the maximal effect. As for `Cc1cc(N2CCN(S(=O)(=O)c3ccc(C)c(C)c3)CC2)c2ccccc2n1`, the results for the EC50 in assay [1], in assay [2] and in [3] were > 120 µM (not active), 50 µM (active) and > 120 µM (not active), respectively.
For `Cc1n[nH]c(S/C(C(=O)O)=C2/C(=O)Nc3ccccc32)n1`, the EC50 in assay [4] is 15.9 µM (active); in assay [5] it was > 300 µM (not active); in assay [6], > 112 µM (not active).
The term IC50 denotes the concentration that gives 50% inhibition. `Cc1cccc(NC(=O)NCCN2CCCCC2)c1`: in assay [7], the IC50 was > 100 µM (inactive).
With `Cc1c(OCc2ccccc2)c(=O)ccn1Cc1ccccc1`, the EC50 in [8] was 8.26 µM (active); in assay [9] it was 13.4 µM (active); in assay [10] it was 9.62 µM (active).
Take `Cc1ccc(NC(=O)CC2C(=O)NC3CCCCC3N2C(=O)c2ccc(F)cc2)cc1C` (stereo unspecified): the EC50 in [4] and in [6] was > 112 µM (not active) in each case.
As to `Cc1onc(-c2ccccc2Cl)c1C(=O)NCCn1ccc2ccccc21`, the IC50 in [7] was > 100 µM (inactive).
Turning to `O=C(Nc1ccc(Cl)cn1)c1cc2c(s1)-c1ccccc1OC2`, the IC50 in assay [7] is > 100 µM (inactive).
As to `Cc1ccc(-c2csc(NC(CO)c3nc4ccccc4n3CCOCCO)n2)cc1` (stereo unspecified), the EC50 in assay [8] was 17.3 µM (active); in [9], > 120 µM (not active); in [10] it was > 120 µM (not active).
Usually AC50 stands for the midpoint of the concentration-response curve, whichever way the signal moves. Consider `CCCCOC(=O)CCc1c(C)nc(O)c(C#N)c1C`, for which the EC50 in assay [4] was > 112 µM (not active); in assay [6], 6.36 µM (active). In addition, the AC50 in [11] is 0.282 µM (inconclusive).
Take `CCCCn1c(SCC(=O)N2c3ccccc3CCc3ccccc32)nc2c1c(=O)n(C)c(=O)n2C`: the half-maximal effective concentration (EC50) in [1] was 15 µM (active); in assay [2] it was 14.2 µM (active); in assay [3], > 120 µM (not active).
As to `Cc1nnc2ccc(-c3ccc(NC(=O)c4ccco4)cc3)nn12`, the EC50 in assay [8] is > 120 µM (not active); in [9], 18.5 µM (active); in assay [10], 14.4 µM (active).
For orientation: CC50 means the concentration giving 50% cytotoxicity. For the compound `CSc1ccc(-c2cc(=O)c3ccccc3o2)cc1`, the half-maximal cytotoxic concentration (CC50) in assay [12] is 18.7 µM (active). In addition, the concentration for half-maximal inhibition (IC50) in [7] is 23.9 µM (active).
In the case of `Sc1nnc(Cc2sc(-c3ccccc3)nc2-c2ccccc2)o1`, the results for the concentration for a half-maximal effect (EC50) in assay [1], in assay [2] and in [3] were > 120 µM (not active), > 120 µM (not active) and 18.9 µM (active), respectively.
As for `CN(C)c1ccc(-n2cc3c(=O)n(C)c(=O)n(C)c3c2)cc1`, the EC50 in [8] is 42.3 µM (active); in [9], 45 µM (active); in assay [10], 21 µM (active).
Consider `O=C(CSc1ncnc2scc(-c3ccc(Cl)cc3)c12)NCc1ccc2c(c1)OCO2`, for which, in [7], the IC50 was > 100 µM (inactive).
Regarding `COc1ccc(NC(=O)c2cccs2)cc1`, the EC50 was 17.4 µM (active) in [4] and 18.6 µM (active) in assay [6].
For the compound `O=C(Nc1ccc(Cl)cn1)c1ccccc1F`, in assay [7], the IC50 was 16.3 µM (active).
For `N#CCCN(C(=O)COC(=O)CCc1c[nH]c2ccccc12)c1ccc(F)cc1`, the values for the half-maximal effective concentration (EC50) in assay [4] and in assay [6] were > 112 µM (not active) and 45.7 µM (active), respectively.
In the case of `N=c1nc(SCCC(=O)O)ss1`, the 50% effective concentration (EC50) in assay [1] was 14 µM (active); in assay [2], 15.8 µM (active); in assay [3] it was 13.4 µM (active).
On to `FC(F)(F)c1cc(Oc2ccccc2Cl)nc(-c2ccccn2)n1`, for which the EC50 in [1] was 6.37 µM (active); in [2], > 120 µM (not active); in [3], 7.86 µM (active).
As for `Cc1cc(Nc2cccc([N+](=O)[O-])c2)c2cccc(C)c2n1`, the EC50 in assay [4] and in assay [6] was > 112 µM (not active) in each case.
Take `O=C(NCCc1ccccn1)c1ccc(S(=O)(=O)N2CCCCCC2)cc1`: in [7], the IC50 was > 100 µM (inactive).
Still for that read-out and setting: to `Brc1ccc(-c2nnc(-c3cccnc3)o2)cc1` belongs 25.1 µM (active); to `O=C(NCc1ccc(Cl)cc1)c1ccc(-c2ccc(F)c(F)c2)c2ccoc12`, > 100 µM (inactive).
For the compound `CC(=O)c1sc(N/N=C2\CC3CC2C(C)C3(C)C)nc1C` (stereo unspecified), the concentration giving a half-maximal response (EC50) in assay [8] is 11 µM (active); in assay [9], 0.411 µM (active); in assay [10], 12.9 µM (active).
`O=C(Cn1c2ccccc2c(=O)c2ccccc21)N/N=C/c1ccc(N2CCCC2)c([N+](=O)[O-])c1`: the concentration giving a half-maximal response (EC50) in [4] was > 112 µM (not active); in assay [1], 5.08 µM (active); in assay [6] it was 27.4 µM (active); in assay [2] it was 7.94 µM (active); in assay [3], 5.67 µM (active). Further, the concentration at half-maximal activity (AC50) in assay [13] was 0.483 µM (active).
As to `N#CC(=Cc1cccs1)c1nc(-c2ccc(Cl)cc2)cs1`, in assay [7], the IC50 was > 100 µM (inactive).
In the case of `Cc1ccc(-n2cnc3c(sc4nccc(N(C)C)c43)c2=O)cc1`, the values for the EC50 in assay [8], in assay [9] and in [10] were 15.6 µM (active), > 120 µM (not active) and 75.7 µM (active), respectively.
For the compound `COc1ccc(/C=N/N=C(/N)N[N+](=O)[O-])c(OC)c1`, the 50% effective concentration (EC50) in [4] was > 112 µM (not active); in assay [6], 2.39 µM (active).
